{"source": "patent US7101692B2", "about": "(priority 1999, dated 2006)", "key": {"[1]": {"system": "sorting reaction (sortase cleavage of Seb-Spa490-524 P2 precursor at the LPXTG motif)", "format": "cell-based, S. aureus OS2"}, "[2]": {"system": "wild-type staphylococci, strains SM317 and SM329", "format": "cell-based, S. aureus"}, "[3]": {"target": "sortase (Staphylococcus aureus, UniProt Q2FV99)", "sequence (Q2FV99 whole entry)": "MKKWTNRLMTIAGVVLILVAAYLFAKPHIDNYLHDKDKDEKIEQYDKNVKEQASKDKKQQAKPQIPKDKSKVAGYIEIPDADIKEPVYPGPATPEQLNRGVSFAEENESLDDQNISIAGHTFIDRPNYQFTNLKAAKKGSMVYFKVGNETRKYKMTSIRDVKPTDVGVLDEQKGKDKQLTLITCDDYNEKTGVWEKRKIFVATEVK", "format": "biochemical", "settings": "pre-incubation of staphylococcal extracts with 5 mM MTSET"}, "[4]": {"target": "T1, SrtADN (Staphylococcus aureus, UniProt Q2FV99)", "T1 sequence (Q2FV99 26-206)": "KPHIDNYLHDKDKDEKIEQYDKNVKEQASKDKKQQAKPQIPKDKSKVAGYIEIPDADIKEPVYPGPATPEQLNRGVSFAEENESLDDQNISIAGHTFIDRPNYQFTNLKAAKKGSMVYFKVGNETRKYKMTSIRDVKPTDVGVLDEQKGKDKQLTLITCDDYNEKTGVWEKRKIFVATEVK", "format": "biochemical, S. aureus", "settings": "5 mM MTSET or 5 mM pHMB, 5 μM SrtADN"}, "[5]": {"system": "S. aureus OS2 (pSeb-Spa490-524)", "format": "cell-based"}, "[6]": {"system": "staphylococci", "format": "cell-based, S. aureus OS2"}, "[7]": {"system": "cell wall synthesis", "format": "cell-based, staphylococci (S. aureus OS2)"}, "[8]": {"system": "cell wall sorting reaction (surface protein anchoring)", "format": "cell-based, S. aureus OS2"}, "[9]": {"target": "T1, SrtADN", "format": "biochemical, S. aureus", "settings": "absence of peptidoglycan substrate", "source_text": "The N-terminal membrane anchor segment of […] (residues 2-25) were replaced with a six-histidine tag ([…]). In the absence of the peptidoglycan substrate, SrtA DN catalyzes peptide bond hydrolysis and cleaves LPETG peptide, presumably between the threonine and the glycine (Ton-That et al., 2000)."}}, "note": "“Also recorded” adds a separate entry of the source.", "data": [{"compound": "CCN1C(=O)C=CC1=O", "note": "[N-ethylmaleimide]", "values": [{"measurement": "interference with cleavage of sorting signals at the LPXTG motif / cell wall sorting (in words)", "setting": "[1]", "value": "did not"}]}, {"compound": "O[C@H](CS)[C@H](O)CS", "note": "(racemic) [dithiothreitol (DTT), dithiothreitol]", "values": [{"measurement": "interference with cleavage of sorting signals at the LPXTG motif / cell wall sorting (in words)", "setting": "[1]", "value": "did not affect the sorting reaction"}]}, {"compound": "O=C(O)CI", "note": "[iodoacetic acid]", "values": [{"measurement": "interference with cleavage of sorting signals at the LPXTG motif / cell wall sorting (in words)", "setting": "[1]", "value": "did not"}]}, {"compound": "lysostaphin", "values": [{"measurement": "growth inhibition by lysostaphin", "setting": "[2]", "value": "inhibited growth of wild-type staphylococci"}]}, {"compound": "C[N+](C)(C)CCSS(C)(=O)=O", "note": "[[2-(trimethylammonium)ethyl]methanethiosulfonate]", "values": [{"measurement": "inhibition of LPXTG peptide cleavage", "setting": "[3]", "value": "inhibited"}, {"measurement": "inhibition of LPXTG peptide cleavage", "setting": "[4]", "value": "inhibited; also recorded: abolished all enzymatic activity"}, {"measurement": "interference with cleavage of sorting signals at the LPXTG motif / cell wall sorting (in words)", "setting": "[1]", "value": "interfered with the cleavage of sorting signals at the LPXTG motif"}, {"measurement": "incorporation of [35S]methionine by staphylococci", "setting": "[5]", "value": "prevented incorporation"}, {"measurement": "protein export (Sec-dependent export of P1 precursor)", "setting": "[5]", "value": "remained unaltered"}]}, {"compound": "moenomycin", "values": [{"measurement": "growth rate of staphylococci", "setting": "[6]", "value": "reduced the growth rate"}, {"measurement": "fold inhibition of cell wall synthesis", "setting": "[7]", "value": 1.6, "unit": "fold"}, {"measurement": "[P2]/[M]", "setting": "[8]", "value": "0.24 ± 0.04"}, {"measurement": "effect on rate of cell wall sorting (P2 precursor accumulation), in words", "setting": "[8]", "value": "similar, albeit weaker effect"}]}, {"compound": "CN[C@H](CC(C)C)C(=O)N[C@H]1C(=O)N[C@@H](CC(N)=O)C(=O)N[C@H]2C(=O)N[C@H]3C(=O)N[C@H](C(=O)N[C@H](C(=O)O)c4cc(O)cc(O)c4-c4cc3ccc4O)[C@H](O)c3ccc(c(Cl)c3)Oc3cc2cc(c3O[C@@H]2O[C@H](CO)[C@@H](O)[C@H](O)[C@H]2O[C@H]2C[C@](C)(N)[C@H](O)[C@H](C)O2)Oc2ccc(cc2Cl)[C@H]1O", "note": "[vancomycin]", "values": [{"measurement": "fold inhibition of cell wall synthesis", "setting": "[7]", "value": 9.5, "unit": "fold"}, {"measurement": "inhibition of cell wall synthesis (lysine/leucine ratio)", "setting": "[7]", "value": 20, "unit": "fold"}, {"measurement": "[P2]/[M]", "setting": "[8]", "value": "0.47 ± 0.04"}, {"measurement": "effect on rate of cell wall sorting (P2 precursor accumulation), in words", "setting": "[8]", "value": "led to a steady accumulation of P2 precursor"}]}, {"compound": "p-hydroxymercuribenzoic acid [p-hydroxymercuribenzoic acid (pHMB)]", "values": [{"measurement": "inhibition of LPXTG peptide cleavage", "setting": "[4]", "value": "inhibited"}, {"measurement": "interference with cleavage of sorting signals at the LPXTG motif / cell wall sorting (in words)", "setting": "[1]", "value": "displayed an inhibitory effect"}]}, {"compound": "CS(=O)(=O)SCCS(=O)(=O)O", "note": "[(2-sulfonatoethyl)methanethiosulfonate]", "values": [{"measurement": "interference with cleavage of sorting signals at the LPXTG motif / cell wall sorting (in words)", "setting": "[1]", "value": "interfered with sorting albeit not as effectively as MTSET"}]}, {"compound": "penicillin", "values": [{"measurement": "growth rate of staphylococci", "setting": "[6]", "value": "reduced the growth rate"}, {"measurement": "fold inhibition of cell wall synthesis", "setting": "[7]", "value": 3.3, "unit": "fold"}, {"measurement": "[P2]/[M]", "setting": "[8]", "value": "0.10 ± 0.01"}, {"measurement": "effect on rate of cell wall sorting (P2 precursor accumulation), in words", "setting": "[8]", "value": "did not alter the rate of cell wall sorting"}]}, {"compound": "OCCS", "note": "[2-mercaptoethanol]", "values": [{"measurement": "interference with cleavage of sorting signals at the LPXTG motif / cell wall sorting (in words)", "setting": "[1]", "value": "did not affect the sorting reaction"}]}, {"compound": "NC(=O)CI", "note": "[iodoacetamide]", "values": [{"measurement": "interference with cleavage of sorting signals at the LPXTG motif / cell wall sorting (in words)", "setting": "[1]", "value": "did not"}]}, {"compound": "methylmethane thiosulfonate", "values": [{"measurement": "inhibition of LPETG peptide cleavage (peptide bond hydrolysis)", "setting": "[9]", "value": "inhibited"}]}]}
